System: Rat platelets
Test: Platelet aggregation inhibition (4-channel platelet lumi-aggregometer)
Format: cell-based
Settings: compound 100 μM, compared to control (vehicle), FIG. 2
Method: In order to evaluate the platelet aggregation activity of MBP-11902 according to Present Example 1 of the present disclosure, the platelet aggregation was activated in rat plasma with platelet aggregation factors and agonists, thrombin, collagen, ADP (adenosine diphosphate), U46619 (thromboxane A2 agonist), and PMA (phorbol-12-myristate-13-acetate), and then, the rat plasma was pretreated with vehicle (distilled water) and various doses (100, 300, and 500 μM) of MBP-11902, and then a 4-channel platelet lumi-aggregometer (Chronolog Corp, Havertown, PA) was used to measure the value indicating the platelet aggregation level, and the results are shown in FIG. 1. […]
Rat platelets were placed in HEPES-Tyrode buffer at a concentration of 3×10^8 cells/mL and pretreated with the vehicle (distilled water) and various doses (100, 300, and 500 μM) of MBP-11902 at 37° C. for 15 minutes, and then activated with collagen, thrombin, ADP, U46619 (endoperoxide/thromboxane analogs), and PMA (PKC activator), which are known as agonists in the platelet aggregation system. The platelet aggregation was induced at 1,000 rpm in a platelet aggregation system (Chronolog Corp, Havertown, PA) at 37° C. and then, the platelet aggregation level was measured.

Structure (SMILES): O=C(O)c1cc(-c2ccc(F)cc2F)ccc1O [NSAID, Diflunisal]
- platelet aggregation induced by collagen (comparative evaluation) (collagen 1 μg/mL): significantly inhibit
- platelet aggregation induced by thrombin (comparative evaluation) (thrombin 0.05 U/ml): significantly inhibit
